From patent US20230019491A1, “PYRIMIDINE TBK/IKKe INHIBITOR COMPOUNDS AND USES THEREOF” (Merck Patent GmbH, priority 2017, published 2023)
pIC50: −log10 of the molar value. Where a name gives a salt, the structure may show the parent alone.

Experiments:
TBK1 = molecular target: T1, TBK1 (Homo sapiens, UniProt Q9UHD2); experiment: TBK biochemical assay; conditions: 10 point 1:4 dose response, 30 uM top concentration, 90 min at 25° C., LabChip EZ Reader II; read-out: TBK1_IC50
T1 sequence (Q9UHD2 1-729): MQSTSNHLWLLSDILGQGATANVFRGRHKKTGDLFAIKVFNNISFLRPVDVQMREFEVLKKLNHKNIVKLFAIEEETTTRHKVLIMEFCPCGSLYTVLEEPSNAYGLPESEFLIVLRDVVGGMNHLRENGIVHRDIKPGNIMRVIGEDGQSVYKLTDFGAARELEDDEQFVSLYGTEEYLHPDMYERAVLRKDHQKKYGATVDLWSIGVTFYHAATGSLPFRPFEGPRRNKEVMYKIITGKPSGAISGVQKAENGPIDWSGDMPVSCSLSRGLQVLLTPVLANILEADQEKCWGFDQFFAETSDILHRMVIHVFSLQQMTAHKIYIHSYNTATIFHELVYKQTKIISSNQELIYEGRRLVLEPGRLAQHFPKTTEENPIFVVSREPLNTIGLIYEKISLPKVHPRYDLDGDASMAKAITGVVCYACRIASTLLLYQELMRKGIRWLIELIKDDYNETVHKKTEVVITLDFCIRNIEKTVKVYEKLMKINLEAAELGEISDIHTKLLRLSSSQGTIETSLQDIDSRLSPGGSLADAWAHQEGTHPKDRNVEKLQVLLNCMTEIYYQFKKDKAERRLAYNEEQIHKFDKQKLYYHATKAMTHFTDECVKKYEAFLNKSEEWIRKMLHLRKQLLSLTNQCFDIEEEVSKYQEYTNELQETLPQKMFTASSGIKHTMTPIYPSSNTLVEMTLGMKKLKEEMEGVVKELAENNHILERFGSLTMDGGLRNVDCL
Outline: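 Read-out was a Caliper LabChip mobility-shift assay, run after a 90-min, 25 °C reaction of TBK1 with substrate and compounds, quenched with stop buffer. Control wells received staurosporine at 10 uM final.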

IKKε = molecular target: T2, IKKε (Homo sapiens, UniProt Q14164); experiment: IKKε biochemical assay; conditions: 10 point 1:4 dose response, 30 uM top concentration, 90 min at 25° C., LabChip EZ Reader II; read-out: IKKε_IC50
T2 sequence (Q14164 1-716): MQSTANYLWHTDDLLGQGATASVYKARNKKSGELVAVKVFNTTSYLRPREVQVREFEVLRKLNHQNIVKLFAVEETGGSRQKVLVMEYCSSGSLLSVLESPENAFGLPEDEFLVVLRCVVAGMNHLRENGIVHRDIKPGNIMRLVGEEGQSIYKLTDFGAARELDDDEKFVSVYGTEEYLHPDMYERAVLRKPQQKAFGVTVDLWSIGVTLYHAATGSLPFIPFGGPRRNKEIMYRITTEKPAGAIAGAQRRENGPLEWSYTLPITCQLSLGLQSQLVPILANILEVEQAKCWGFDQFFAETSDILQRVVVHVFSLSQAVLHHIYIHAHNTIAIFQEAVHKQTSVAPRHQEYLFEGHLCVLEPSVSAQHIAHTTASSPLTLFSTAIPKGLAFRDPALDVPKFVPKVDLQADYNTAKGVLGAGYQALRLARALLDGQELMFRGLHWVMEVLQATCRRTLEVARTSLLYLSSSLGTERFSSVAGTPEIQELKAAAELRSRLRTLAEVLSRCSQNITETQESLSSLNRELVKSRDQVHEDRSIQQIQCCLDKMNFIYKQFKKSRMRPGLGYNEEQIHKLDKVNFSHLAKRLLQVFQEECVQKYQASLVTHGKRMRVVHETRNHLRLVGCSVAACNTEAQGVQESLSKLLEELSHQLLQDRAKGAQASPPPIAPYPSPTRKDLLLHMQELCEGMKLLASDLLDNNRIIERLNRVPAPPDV
Outline: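 Mobility-shift LabChip read-out followed a 90 min, 25° C. reaction of IKKε with substrate and test compound, with DMSO held at 1% final. Reactions were ended with stop buffer. Wells with 10 uM final staurosporine defined complete inhibition, and DMSO-only wells the uninhibited level.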

SMILES	pIC50 (TBK1)	pIC50 (IKKε)
COc1nc(Nc2nccc(-c3ccc(OC4CCN(C(=O)c5cocn5)CC4)c(C#N)c3)n2)ccc1C(=O)N(C)C [Example 77, 6-([4-[3-cyano-4-([1-[(1,3-oxazol-4-yl)carbonyl]piperidin-4-yl]oxy)phenyl]pyrimidin-2-yl]amino)-2-methoxy-N,N-dimethylpyridine-3-carboxamide]	> 7.00	> 7.00
COc1cc(Nc2nccc(-c3ccc(OC4CCN(C(=O)[C@@H](C)O)CC4(F)F)c(C#N)c3)n2)ccc1C1CCN(C2COC2)CC1 (stereo partly drawn) [Example 227, 2-([3,3-difluoro-1-[(2R)-2-hydroxypropanoyl]piperidin-4-yl]oxy)-5-[2-([3-methoxy-4-[1-(oxetan-3-yl)piperidin-4-yl]phenyl]amino)pyrimidin-4-yl]benzonitrile]	> 7.00	> 7.00
COc1nc(Nc2nccc(-c3ccc(OC4CCOC4)c(C#N)c3)n2)ccc1N1CCN(C2COC2)CC1 (centres unmarked) [Example 162, 5-[2-([6-methoxy-5-[4-(oxetan-3-yl)piperazin-1-yl]pyridin-2-yl]amino)pyrimidin-4-yl]-2-(oxolan-3-yloxy)benzonitrile]	> 7.00	> 7.00
CN1CCC(Oc2ccc(-c3ccnc(Nc4ccc(N5CCN(C)CC5)cn4)n3)cc2C#N)CC1 [Example 83, 5-(2-[[5-(4-methylpiperazin-1-yl)pyridin-2-yl]amino]pyrimidin-4-yl)-2-[(1-methylpiperidin-4-yl)oxy]benzonitrile]	< 5.30	5.30 to 6.00
COc1nc(Nc2nccc(-c3ccc(OC4CCOCC4)c(C#N)c3)n2)ccc1N(C)CC(=O)N(C)C [Example 35, 2-[[6-([4-[3-cyano-4-(oxan-4-yloxy)phenyl]pyrimidin-2-yl]amino)-2-methoxypyridin-3-yl](methyl)amino]-N,N-dimethylacetamide hydrochloride]	> 7.00	> 7.00
N#Cc1cc(-c2ccnc(Nc3ccc(N4CCN(C5COC5)CC4)cn3)n2)ccc1OC1CCOCC1 [Example 165, 5-{2-[5-(4-Oxetan-3-yl-piperazin-1-yl)-pyridin-2-ylamino]-pyrimidin-4-yl}-2-(tetrahydro-pyran-4-yloxy)-benzonitrile]	> 7.00	> 7.00
COc1nc(Nc2nccc(-c3ccc(OC4CCOCC4)c(C#N)c3)n2)ccc1C(=O)N1CCN(CCO)CC1 [Example 15, 5-(2-{5-[4-(2-Hydroxy-ethyl)-piperazine-1-carbonyl]-6-methoxy-pyridin-2-ylamino}-pyrimidin-4-yl)-2-(tetrahydro-pyran-4-yloxy)-benzonitrile]	> 7.00	> 7.00
COc1nc(Nc2nccc(-c3ccc(OC4CCN(C(=O)[C@@H]5CCCO5)CC4(F)F)c(C#N)c3)n2)ccc1N1CCN(C2COC2)CC1 (stereo partly drawn) [Example 254, 2-[3,3-Difluoro-1-((S)-tetrahydro-furan-2-carbonyl)-piperidin-4-yloxy]-5-{2-[6-methoxy-5-(4-oxetan-3-yl-piperazin-1-yl)-pyridin-2-ylamino]-pyrimidin-4-yl}-benzonitrile]	> 7.00	> 7.00
COc1nc(Nc2nccc(-c3ccc(OC4CCNCC4(F)F)c(C#N)c3)n2)ccc1N1CCN(C2COC2)[C@@H](C)C1 (stereo partly drawn) [Example 123, 2-(3,3-Difluoro-piperidin-4-yloxy)-5-{2-[6-methoxy-5-((S)-3-methyl-4-oxetan-3-yl-piperazin-1-yl)-pyridin-2-ylamino]-pyrimidin-4-yl}-benzonitrile]	> 7.00	> 7.00
C[C@@H](O)C(=O)N1CCC(Oc2ccc(-c3ccnc(Nc4cccc(C5CCN(C6COC6)CC5)c4)n3)cc2C#N)C(F)(F)C1 (stereo partly drawn) [Example 225, 2-[3,3-Difluoro-1-((R)-2-hydroxy-propionyl)-piperidin-4-yloxy]-5-{2-[3-(1-oxetan-3-yl-piperidin-4-yl)-phenylamino]-pyrimidin-4-yl}-benzonitrile]	> 7.00	> 7.00
